Measured values: patent US20090274655A1, “2-CARBOXY THIOPHENE DERIVATIVES AS ANTI VIRAL AGENTS” (priority 2006, published 2009)

What was measured:
[1] = tested on: sub-genomic HCV NS3-NS5B replicon of genotype 1a (subline 1.19) in Huh-7 cells; assay: 1a luciferase replicon assay (replicon luciferase cell based assay); set-up: species or system HCV genotype 1a; conditions: Hepatitis C virus, genotype 1a replicon, firefly luciferase reporter, 48 hours
Procedure: (§1) Replicon Luciferase Cell Based Assay
(§2) A 40 mM stock solution in DMSO of each test compound was further diluted into 50 μL of DMSO in the first row of a 96 well, V-bottom microplate, to give 100 times the top concentration of the required dilution series. Aliquots of 25 μL of DMSO were added to each well of the remaining rows, and doubling dilutions of compound were prepared by the serial transfer of 25 μL volumes from the first row onwards. A PlateMate™ robot was used to transfer 1 μL volumes from each dilution well into duplicate wells of a clear bottom, black walled, 96 well assay plate (COSTAR #3603). Control wells received 1 μL of DMSO alone. […]
(§3) One tablet of Resazurin (Fisher #R/0040/79) was dissolved in 50 mL of phosphate buffered saline and 100 μL of solution added to all wells. The plate was re-incubated at 37° C. for a further 2-4 hours, wrapped in aluminium foil, before reading in a FLUOStar Optima at 595 nm. […] The plate was then read for luminescence on a TopCount® NXT™.
(§4) Potency: The luminescence values from all compound-free wells containing cells were averaged to obtain a positive control value. The mean luminescence value from the compound-free wells that had received no cells was used to provide the negative (background) control value. […] The quantifiable and specific reduction of luciferase signal in the presence of a drug is a direct measure of replicon inhibition. […]

[2] = tested on: sub-genomic HCV NS3-NS5B replicon of genotype 1b (ET subline) in Huh-7 cells; assay: 1b luciferase replicon assay (replicon luciferase cell based assay); set-up: species or system HCV genotype 1b; conditions: Hepatitis C virus, Huh-7, 48 h, read-out: IC50 in the 1b luciferase replicon assay
Procedure: as §1, §2, §3, §4

CC(C)N(c1cc(-c2ccc(NC(=O)c3cscn3)cc2)sc1C(=O)O)C(=O)[C@H]1CC[C@H](C)CC1 [Example 1, 3-[[(trans-4-Methylcyclohexyl)carbonyl](1-methylethyl)amino]-5-{4-[(1,3-thiazol-4-ylcarbonyl)amino]phenyl}-2-thiophenecarboxylic acid]
IC50 [1]: < 100 nM
IC50 [2]: < 100 nM
